Reference: US8680159B2, “Bradykinin 1 receptor modulating compounds” (Gruenenthal GmbH, priority 2010, dated 2014)

Columns and labels:
[1] = target: T1, human B1R receptor (CHO K1 cells stably transfected with the human B1R gene) (Homo sapiens, UniProt P46663); assay: Functional study on the bradykinin receptor 1 (B1R), Ca2+ fluorescence (Fluo-4) FLIPR/Novostar assay, hB1R cells; assay type: cell-based; settings: CHO-K1, read-out: % inhibition (human B1R) at 10 μM
T1 construct: expressed in transfected cells; host or cells: CHO K1 cells (Chinese hamster ovary), stably transfected
T1 sequence (P46663 1-353): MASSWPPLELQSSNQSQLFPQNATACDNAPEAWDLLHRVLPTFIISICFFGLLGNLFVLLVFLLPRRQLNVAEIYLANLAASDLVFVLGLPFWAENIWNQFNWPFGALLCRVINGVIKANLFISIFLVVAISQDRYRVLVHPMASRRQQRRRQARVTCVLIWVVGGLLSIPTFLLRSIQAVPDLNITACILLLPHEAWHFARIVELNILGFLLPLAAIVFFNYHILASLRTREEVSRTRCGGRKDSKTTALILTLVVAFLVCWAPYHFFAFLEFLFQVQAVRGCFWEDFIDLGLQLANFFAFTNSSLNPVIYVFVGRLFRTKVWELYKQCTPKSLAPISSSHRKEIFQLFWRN
Method in brief: (§1)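 Stably transfected CHO K1 cells carrying human or rat B1R were Fluo-4 loaded and Ca2+ fluorescence read by FLIPR or Novostar. Compounds were added first at 10 μM for % activation, then the EC80 agonist was applied after 6-20 min (human: Lys-Des-Arg9-bradykinin; rat: Des-Arg9-bradykinin). % inhibition is relative to maximum achievable inhibition, and IC50 comes from concentration series.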

[2] = target: T2, B1R receptor of the rat (CHO K1 cells stably transfected with the B1R gene of the rat) (Rattus norvegicus, UniProt P97583); assay: Functional study on the bradykinin receptor 1 (B1R), Ca2+ fluorescence (Fluo-4) FLIPR/Novostar assay, rB1R cells; assay type: cell-based; settings: CHO-K1, 10 μM, read-out: % inhibition (rat B1R) at 10 μM
T2 construct: expressed in transfected cells; host or cells: CHO K1 cells (Chinese hamster ovary), stably transfected
T2 sequence (P97583 1-337): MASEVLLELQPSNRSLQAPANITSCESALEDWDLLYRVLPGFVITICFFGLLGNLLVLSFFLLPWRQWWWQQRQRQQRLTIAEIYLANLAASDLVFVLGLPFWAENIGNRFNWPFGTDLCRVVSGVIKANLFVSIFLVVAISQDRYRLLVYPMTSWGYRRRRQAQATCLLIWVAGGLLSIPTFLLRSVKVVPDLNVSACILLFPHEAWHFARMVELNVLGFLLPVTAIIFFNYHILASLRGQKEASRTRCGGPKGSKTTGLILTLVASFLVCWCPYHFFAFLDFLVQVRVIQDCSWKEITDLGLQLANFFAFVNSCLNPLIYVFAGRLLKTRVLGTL
Method in brief: as §1

Structure (SMILES) | inhibition at 10 µM [1] | inhibition at 10 µM [2]
Cc1cc(N2CCC(N(C)C(=O)c3ccc4c(c3)[C@H](NC(=O)c3ccccc3Cl)CC4)CC2)nc(C(C)C)n1 [Example H-139, (3R)-3-[(2-Chloro-benzoyl)amino]-N-[1-(2-isopropyl-6-methyl-pyrimidin-4-yl)-piperidin-4-yl]-N-methyl-2,3-dihydro-1H-indene-5-carboxylic acid amide] | 100% | 97%
CN(C(=O)c1ccc2c(c1)[C@H](NC(=O)c1ccccc1Cl)CC2)C1CCN(CC(=O)N2CCCC2)CC1 [Example H-140, (3R)-3-[(2-Chloro-benzoyl)amino]-N-methyl-N-[1-(2-oxo-2-pyrrolidin-1-yl-ethyl)-piperidin-4-yl]-2,3-dihydro-1H-indene-5-carboxylic acid amide] | 47% | 49%
Cc1cc(N2CCC(N(C)C(=O)c3ccc4c(c3)[C@H](NC(=O)c3ccccc3Cl)CC4)CC2)ncn1 [Example H-141, (3R)-3-[(2-Chloro-benzoyl)amino]-N-methyl-N-[1-(6-methyl-pyrimidin-4-yl)-piperidin-4-yl]-2,3-dihydro-1H-indene-5-carboxylic acid amide] | 99% | 105%
Cc1cc(N2CCC(N(C)C(=O)c3cc4c(cc3F)[C@H](N3Cc5cccc(Cl)c5C3=O)CC4)CC2)nc(C)n1 [Example H-142, (1R)-1-(4-Chloro-3-oxo-1,2-dihydro-isoindol-2-yl)-N-[1-(2,6-dimethyl-pyrimidin-4-yl)-piperidin-4-yl]-6-fluoro-N-methyl-2,3-dihydro-1H-indene-5-carboxylic acid amide] | 99% | 98%
Cc1cc(N2CCC(N(C)C(=O)c3cc4c(cc3F)[C@H](NC(=O)c3cc(C)on3)CC4)CC2)nc(C)n1 [Example H-143, N-[(1R)-5-[[1-(2,6-Dimethyl-pyrimidin-4-yl)-piperidin-4-yl]-methyl-carbamoyl]-6-fluoro-2,3-dihydro-1H-inden-1-yl]-5-methyl-isoxazole-3-carboxylic acid amide] | 98% | 31%
Cc1cc(N2CCC(N(C)C(=O)c3ccc4c(c3)[C@H](N(C(=O)c3ccccc3Cl)C(C)C)CC4)CC2)nc(C)n1 [Example H-144, (3R)-3-[(2-Chloro-benzoyl)-isopropyl-amino]-N-[1-(2,6-dimethyl-pyrimidin-4-yl)-piperidin-4-yl]-N-methyl-2,3-dihydro-1H-indene-5-carboxylic acid amide] | 91% | 77%
CCN(C(=O)c1ccccc1Cl)[C@@H]1CCc2ccc(C(=O)N(C)C3CCN(c4cc(C)nc(C)n4)CC3)cc21 [Example H-145, (3R)-3-[(2-Chloro-benzoyl)-ethyl-amino]-N-[1-(2,6-dimethyl-pyrimidin-4-yl)-piperidin-4-yl]-N-methyl-2,3-dihydro-1H-indene-5-carboxylic acid amide] | 100% | 106%
CN(C(=O)c1ccc2c(c1)[C@H](NC(=O)c1ccccc1Cl)CC2)C1CN(c2ccncc2)C1 [Example H-146, (3R)-3-[(2-Chloro-benzoyl)amino]-N-methyl-N-(1-pyridin-4-yl-azetidin-3-yl)-2,3-dihydro-1H-indene-5-carboxylic acid amide] | -1% | 107%
CN(C(=O)c1ccc2c(c1)[C@H](NC(=O)c1ccccc1Cl)CC2)C1CCN(c2ccncn2)CC1 [Example H-147, (3R)-3-[(2-Chloro-benzoyl)amino]-N-methyl-N-(1-pyrimidin-4-yl-piperidin-4-yl)-2,3-dihydro-1H-indene-5-carboxylic acid amide] | 99% | 107%
CN(C(=O)c1ccc2c(c1)[C@H](N(C)C(=O)c1ccccc1Cl)CC2)C1CCN(c2ccncn2)CC1 [Example H-148, (3R)-3-[(2-Chloro-benzoyl)-methyl-amino]-N-methyl-N-(1-pyrimidin-4-yl-piperidin-4-yl)-2,3-dihydro-1H-indene-5-carboxylic acid amide] | 89% | 99%
Cc1cc(N2CCC(N(C)C(=O)c3ccc4c(c3)[C@H](N(C)C(=O)c3ccccc3Cl)CC4)CC2)nc(C)n1 [Example H-149, (3R)-3-[(2-Chloro-benzoyl)-methyl-amino]-N-[1-(2,6-dimethyl-pyrimidin-4-yl)-piperidin-4-yl]-N-methyl-2,3-dihydro-1H-indene-5-carboxylic acid amide] | 100% | 101%
CC(C)N(C(=O)c1ccccc1Cl)[C@@H]1CCc2ccc(C(=O)N(C)C3CCN(c4ccncc4)CC3)cc21 [Example H-150, (3R)-3-[(2-Chloro-benzoyl)-isopropyl-amino]-N-methyl-N-(1-pyridin-4-yl-piperidin-4-yl)-2,3-dihydro-1H-indene-5-carboxylic acid amide] | 89% | 98%
Cc1cc(N2CCC(N(C)C(=O)c3cc4c(cc3F)[C@H](NC(=O)c3ccccc3Cl)CC4)CC2)nc(C)n1 [Example H-151, (1R)-1-[(2-Chloro-benzoyl)amino]-N-[1-(2,6-dimethyl-pyrimidin-4-yl)-piperidin-4-yl]-6-fluoro-N-methyl-2,3-dihydro-1H-indene-5-carboxylic acid amide] | 100% | 96%
Cc1cc(N2CCC(N(C)C(=O)c3cc4c(cc3F)[C@H](NC(=O)c3ccccc3Cl)CC4)CC2)ncn1 [Example H-152, (1R)-1-[(2-Chloro-benzoyl)amino]-6-fluoro-N-methyl-N-[1-(6-methyl-pyrimidin-4-yl)-piperidin-4-yl]-2,3-dihydro-1H-indene-5-carboxylic acid amide] | 82% | 93%
CN(C(=O)c1ccc2c(c1)[C@H](N(C)C(=O)c1ccccc1Cl)CC2)C1CCN(c2ccncc2)CC1 [Example H-153, (3R)-3-[(2-Chloro-benzoyl)-methyl-amino]-N-methyl-N-(1-pyridin-4-yl-piperidin-4-yl)-2,3-dihydro-1H-indene-5-carboxylic acid amide] | 100% | 101%
CC(C)N(C(=O)c1ccccc1Cl)[C@@H]1CCc2cc(F)c(C(=O)N(C)C3CCN(c4ccncc4)CC3)cc21 [Example H-155, (3R)-3-[(2-Chloro-benzoyl)-isopropyl-amino]-6-fluoro-N-methyl-N-(1-pyridin-4-yl-piperidin-4-yl)-2,3-dihydro-1H-indene-5-carboxylic acid amide] | 62% | 104%
CCN(C(=O)c1ccc2c(c1)[C@H](NC(=O)c1ccccc1Cl)CC2)C1CCN(c2ncnc3nc[nH]c23)CC1 [Example H-156, (3R)-3-[(2-Chloro-benzoyl)amino]-N-ethyl-N-[1-(7H-purin-6-yl)-piperidin-4-yl]-2,3-dihydro-1H-indene-5-carboxylic acid amide] | 90% | 101%
CC(C)N(C(=O)c1ccccc1Cl)[C@@H]1CCc2cc(C(=O)N(C)C3CCN(c4ccncc4)CC3)c(F)cc21 [Example H-158, (1R)-1-[(2-Chloro-benzoyl)isopropyl-amino]-6-fluoro-N-methyl-N-(1-pyridin-4-yl-piperidin-4-yl)-2,3-dihydro-1H-indene-5-carboxylic acid amide] | 23% | 61%
Cc1cc(N2CC(N(C)C(=O)c3ccc4c(c3)[C@H](NC(=O)c3ccccc3Cl)CC4)C2)ccn1 [Example H-160, (3R)-3-[(2-Chloro-benzoyl)amino]-N-methyl-N-[1-(2-methyl-pyridin-4-yl)-azetidin-3-yl]-2,3-dihydro-1H-indene-5-carboxylic acid amide] | 100% | 109%
Cc1cc(N2CC(N(C)C(=O)c3ccc4c(c3)[C@H](N3Cc5cccc(Cl)c5C3=O)CC4)C2)ccn1 [Example H-161, (3R)-3-(4-Chloro-3-oxo-1,2-dihydro-isoindol-2-yl)-N-methyl-N-[1-(2-methyl-pyridin-4-yl)-azetidin-3-yl]-2,3-dihydro-1H-indene-5-carboxylic acid amide] | 99% | 111%
Cc1cc(N2CCC(N(C)C(=O)c3ccc4c(c3)[C@H](NC(=O)c3ccccc3C)CC4)CC2)nc(C)n1 [Example H-162, (3R)-N-[1-(2,6-Dimethyl-pyrimidin-4-yl)-piperidin-4-yl]-N-methyl-3-[(2-methyl-benzoyl)amino]-2,3-dihydro-1H-indene-5-carboxylic acid amide] | 100% | 105%
